Measured values from US20150315218A1, “SALTS OF PRODRUGS OF PIPERAZINE AND SUBSTITUTED PIPERIDINE ANTIVIRAL AGENTS” (Bristol-Myers Squibb Company, priority 2004, published 2015).
Like-named read-outs stand apart in the source and are kept apart here.

How the values were obtained:
[1] = IV and PO pharmacokinetic studies of prodrug salts (Iab, Ibb, Icb) in the monkey, with historical parent data; type: in vivo, cynomolgus monkeys; details: cynomolgus monkey, plasma; for AUC: read-out: AUCtot; for half-life: read-out: T1/2 (converted)
Experimental: The IV and PO studies of Iab were conducted in a crossover fashion in three male cynomolgus monkeys (11±1.2 kg, Charles River Biomedical Research Foundation, Houston, Tex.). There was a two-week washout period between the IV and PO studies.
In the IV study, Iab was infused via the femoral vein at 1.3 mg/kg (free acid, or 1.1 mg/kg of IVa equivalent) over 5 min at a constant rate of 0.1 mL/kg/min. The concentration of the dosing solution was 2.6 mg/mL, and the dosing volume was 0.5 mL/kg. Serial blood samples were collected from the femoral artery before dosing and at 5, 10, 15, 30, 45 min, 1, 2, 4, 6, 8 and 24 hr after dosing.
In the PO study, the monkeys were fasted overnight before dosing. Iab was administered by oral gavage at 7.1 mg/kg (free acid, or 5.6 mg/kg of IVa equivalent). The concentration of the dosing solution was 14.2 mg/mL, and the dosing volume was 0.5 mL/kg. Serial blood samples were collected before dosing and at 15, 30, 45 min, 1, 2, 4, 6, 8 and 24 hr after dosing.
The IV and PO studies of Ibb were conducted in a crossover fashion in three male cynomolgus monkeys (9.9±2.4 kg, Charles River Biomedical Research Foundation, Houston, Tex.). There was a two-week washout period between the IV and PO studies.
The concentration of the dosing solution was 2.7 mg/mL, and the dosing volume was 0.5 mL/kg. Serial blood samples were collected from the femoral artery before dosing and at 5, 10, 15, 30, 45 min, 1, 2, 4, 6, 8 and 24 hr after dosing.
In the PO study, the monkeys were fasted overnight before dosing. […] The concentration of the dosing solution was 5.8 mg/mL, and the dosing volume was 1 mL/kg. Serial blood samples were collected before dosing and at 15, 30, 45 min, 1, 2, 4, 6, 8 and 24 hr after dosing.
The IV and PO studies of Icb were conducted in a crossover fashion in three male cynomolgus monkeys (10±1.6 kg, Charles River Biomedical Research Foundation, Houston, Tex.). There was a two-week washout period between the IV and PO studies.
The concentration of the dosing solution was 2.8 mg/mL, and the dosing volume was 0.5 mL/kg. Serial blood samples were collected from the femoral artery before dosing and at 5, 10, 15, 30, 45 min, 1, 2, 4, 6, 8 and 24 hr after dosing.
In the PO study, the monkeys were fasted overnight before dosing. […] The concentration of the dosing solution was 9.8 mg/mL, and the dosing volume was 0.5 mL/kg. Serial blood samples were collected before dosing and at 15, 30, 45 min, 1, 2, 4, 6, 8 and 24 hr after dosing.

[2] = Single-dose toxicokinetic and tolerability study of prodrugs in dogs; type: in vivo, dog; details: for concentration at 24 h / AUC(0-inf) / half-life: dog, plasma; for concentration at 24 h: oral, read-out: C24h; for AUC(0-inf) / half-life: po; for half-life: read-out: T1/2 (converted)
Experimental: A multi-phase study was conducted to evaluate the tolerability of the prodrug, Iab (monolysine salt) at dosages of 24, 90, or 240 mg/kg (free acid, molar equivalent to 19, 71, or 190 mg/kg of parent IVa, respectively) and the toxicokinetics of lab and IVa (4). Iab was administered to two female dogs/group once daily either as an aqueous solution (24 or 90 mg/kg) or dry-filled capsules (24, 90 [once and twice daily] or 240 mg/kg). The endpoints were: clinical signs, body weight, food consumption, and plasma toxicokinetics of lab and IVa. In all cases, a 1-week washout period was used between doses for all phases of the study. […]
On day 1, Icb was administered to one dog/sex/group once daily in dry-filled capsules at the above dosages. A 1-week washout period was used between doses in the study. On day 8, Icb was administered to one dog/sex/group once daily as an aqueous solution at 25 mg/kg or twice daily in dry-filled capsules at 46 or 125 mg/kg BID.

[3] = Single-dose oral toxicokinetic study of prodrugs in rats; type: in vivo, rat; details: for concentration at 24 h / Cmax / AUC / half-life: male, Sprague Dawley, rat, plasma; for concentration at 24 h: oral, read-out: C24h; for Cmax / AUC / half-life: po; for AUC: read-out: AUC from zero to ∞; for half-life: read-out: T1/2 (converted)
Experimental: A 1-day oral toxicokinetic study in rats was conducted using the prodrug Iab (monolysine salt). Iab was administered at dosages of 16, 72, and 267 mg/kg (free acid) by oral gavage to three male rats/group using water as the vehicle (solution formulation). The dosages of prodrug free acid correspond to IVa (parent) molar equivalent dosages of 13, 57, and 211 mg/kg, respectively. The endpoint evaluated was plasma toxicokinetics of Iab and IVa in the individual rats.
A 1-day oral toxicokinetic study in rats was conducted by using the prodrug Ibb (monolysine salt). Ibb was administered at dosages of 19, 64, and 236 mg/kg (free acid) by oral gavage to three male rats/group using water as the vehicle (solution formulation).
A 1-day oral toxicokinetic study in rats was conducted using the prodrug Icb (disodium salt). Icb was administered at dosages of 5, 25, and 200 mg/kg (free acid) by oral gavage to three male rats/group using water as the vehicle (solution formulation).

[4] = female, 25 mg/kg, dog 2201F, day 1, Ibb 25 mg/kg QD dry-filled capsules
[5] = female, 25 mg/kg, dog 2201F, day 8, Ibb 25 mg/kg QD aqueous solution
[6] = female, 92 mg/kg, dog 3201F, day 1, Ibb 92 mg/kg QD dry-filled capsules
[7] = female, 250 mg/kg, dog 4201F, day 1, Ibb 250 mg/kg QD dry-filled capsules
[8] = male, 25 mg/kg, dog 2101M, day 1, Ibb 25 mg/kg QD dry-filled capsules
[9] = male, 25 mg/kg, dog 2101M, day 8, Ibb 25 mg/kg QD aqueous solution
[10] = male, 92 mg/kg, dog 3101M, day 1, Ibb 92 mg/kg QD dry-filled capsules
[11] = male, 250 mg/kg, dog 4101M, day 1, Ibb 250 mg/kg QD dry-filled capsules

AUC ([1]; iv, 1 mg/kg): 10 ± 1.2 µM·h
clearance ([1]; iv, 1 mg/kg, read-out: CLtot): 3.7 ± 0.43 mL/min/kg
MRT ([1]; iv, 1 mg/kg, read-out: MRT): 5.6 ± 6.3 h
half-life ([1]; iv, 1 mg/kg): 19 ± 20 h
Vd ([1]; iv, 1 mg/kg, read-out: Vdss): 1.2 ± 1.4 L/kg
concentration at 24 h ([1]; oral, 5 mg/kg, read-out: C-24 hr): 240 nM
AUC ([1]; po, 5 mg/kg): 24 µM·h
Cmax ([1]; po, 5 mg/kg, read-out: Cmax): 4200 nM
half-life ([1]; po, 5 mg/kg): 11 h
bioavailability ([1]; monkey, historical parent, PO 5 mg/kg, read-out: Bioavailability (%)): 49%
Tmax ([1]; monkey, historical parent, PO 5 mg/kg, read-out: Tmax (hr), PO): 2.5 h
half-life ([1]; male, iv, […]): 6.5 ± 2.4 h
bioavailability ([1]; male, oral, […], read-out: Bioavailability): 187%
half-life ([1]; male, po, […]): 4.1 ± 1.1 h
Tmax ([1]; male, po, […], read-out: Tmax): 1.5 ± 0.87 h
bioavailability ([1]; male, monkey, oral prodrug, read-out: Bioavailability (%) of parent from prodrug): 187%
Tmax ([1]; male, monkey, parent after oral prodrug (~4-6 mg/kg parent equivalent), read-out: Tmax (hr), PO): 1.5 h
Structure (SMILES): O=C(C(=O)N1CCN(C(=O)c2ccccc2)CC1)c1c[nH]c2c(-n3ccnn3)ncc(F)c12 [IVb]
time post-second dose at which mean Cmax of parent was achieved ([2]; dogs, BID dosing of prodrug): 1 to 2 h
time post-dose at which mean Cmax of parent was achieved ([2]; dogs, once daily (QD) dosing of prodrug): 1 to 4 h
concentration at 24 h [2, 4]: 688 nM
concentration at 24 h [2, 5]: 107 nM
concentration at 24 h ([2]; female, 46 mg/kg, dog 3201F, day 8, Ibb 46 mg/kg BID dry-filled capsules): 307 nM
concentration at 24 h [2, 6]: 202 nM
concentration at 24 h ([2]; female, 125 mg/kg, dog 4201F, day 8, Ibb 125 mg/kg BID dry-filled capsules): 1960 nM
concentration at 24 h [2, 7]: 704 nM
AUC(0-inf) [2, 4]: 136 µM·h
half-life [2, 4]: 4.5 h
AUC(0-inf) [2, 5]: 139 µM·h
AUC(0-inf) ([2]; female, 46 mg/kg, dog 3201F, day 8, Ibb 46 mg/kg BID dry-filled capsules, emesis): 1050 µM·h
AUC(0-inf) ([2]; female, 92 mg/kg, dog 3201F, day 1, Ibb 92 mg/kg QD dry-filled capsules, emesis): 329 µM·h
half-life [2, 6]: 2.3 h
AUC(0-inf) ([2]; female, 125 mg/kg, dog 4201F, day 8, Ibb 125 mg/kg BID dry-filled capsules, emesis): 978 µM·h
AUC(0-inf) ([2]; female, 250 mg/kg, dog 4201F, day 1, Ibb 250 mg/kg QD dry-filled capsules, emesis): 745 µM·h
half-life [2, 7]: 3.2 h
concentration at 24 h [2, 8]: 8 nM
concentration at 24 h [2, 9]: 547 nM
concentration at 24 h ([2]; male, 46 mg/kg, dog 3101M, day 8, Ibb 46 mg/kg BID dry-filled capsules): 10600 nM
concentration at 24 h [2, 10]: 1900 nM
concentration at 24 h ([2]; male, 125 mg/kg, dog 4101M, day 8, Ibb 125 mg/kg BID dry-filled capsules): 54200 nM
concentration at 24 h [2, 11]: 2610 nM
AUC(0-inf) [2, 8]: 259 µM·h
half-life [2, 8]: 1.5 h
AUC(0-inf) [2, 9]: 324 µM·h
half-life [2, 9]: 3.3 h
AUC(0-inf) ([2]; male, 46 mg/kg, dog 3101M, day 8, Ibb 46 mg/kg BID dry-filled capsules, emesis): 478 µM·h
AUC(0-inf) ([2]; male, 92 mg/kg, dog 3101M, day 1, Ibb 92 mg/kg QD dry-filled capsules, emesis): 111 µM·h
half-life [2, 10]: 3.6 h
AUC(0-inf) ([2]; male, 125 mg/kg, dog 4101M, day 8, Ibb 125 mg/kg BID dry-filled capsules, emesis): 1390 µM·h
AUC(0-inf) ([2]; male, 250 mg/kg, dog 4101M, day 1, Ibb 250 mg/kg QD dry-filled capsules, emesis): 334 µM·h
half-life [2, 11]: 4.1 h
concentration at 24 h ([3]; 19 mg/kg (free acid)): 48 nM
concentration at 24 h ([3]; 64 mg/kg (free acid)): 290 nM
concentration at 24 h ([3]; 236 mg/kg (free acid)): 29000 nM
Cmax ([3]; 19 mg/kg): 58000 nM
AUC ([3]; 19 mg/kg): 283 µM·h
half-life ([3]; 19 mg/kg): 2.1 h
Cmax ([3]; 64 mg/kg): 135000 nM
AUC ([3]; 64 mg/kg): 997 µM·h
half-life ([3]; 64 mg/kg): 2.1 h
Cmax ([3]; 236 mg/kg): 290000 nM
AUC ([3]; 236 mg/kg): 3700 µM·h
half-life ([3]; 236 mg/kg): 5.8 h
time post-dose at which mean maximum plasma concentration (Cmax) was achieved ([3]; rats, single oral dose of prodrug): 1 to 3 h
